In patent US9783536B2, “Nitrogen-containing heterocyclic compound or salt thereof” (FUJIFILM Corporation, priority 2013, dated 2017):
Where two headings read alike, the source gives them in different places.

Legend:
human PI3Kα protein = target: T1, human PI3Kα protein (Homo sapiens, UniProt P42336); experiment: PI3Kα enzyme assay (ADP-Glo); format: biochemical; conditions: read-out: PI3Kα enzyme inhibitory activity
T1 construct: purchased Carna Biosciences, Inc; host or cells: baculovirus expression system
Description: In a PI3Kα enzyme assay, a product (manufactured by Carna Biosciences, Inc.) obtained by biotinylating a human PI3Kα protein produced by using a baculovirus expression system was used. In addition, in the detection of enzyme activity, ADP-GLO KINASE ASSAY (trade name, manufactured by PROMEGA Corporation) was used.
10 μL of a reaction liquid (4.5 nmol/L PI3Kα, 40 mmol/L Tris-HCl, 20 mmol/L MgCl2, 0.1% BSA, pH 7.5) including the human PI3Kα protein and a test compound having a predetermined concentration was allowed to stand at room temperature for 15 minutes. Then, 5 μL of a mixture liquid of L-α-phosphatidylinositol 4,5-diphosphate (PIP2) (manufactured by Sigma-Aldrich Co. LLC.) and ATP (manufactured by Sigma-Aldrich Co. LLC.), which are substrates, was added thereto such that final concentrations thereof became 50 μmol/L and 100 μmol/L, respectively, and an enzyme reaction was performed by allowing to stand at 25° C. for 60 minutes.
After the reaction, the enzyme reaction was stopped by adding 15 μL of an ADP-GLO REAGENT (trade name, manufactured by PROMEGA Corporation) thereto and allowing to stand at room temperature for 60 minutes. Then, 30 μL of a KINASE DETECTION REAGENT (trade name, manufactured by PROMEGA Corporation) was added thereto, followed by allowing to stand at room temperature for 40 minutes, and ADP produced by the enzyme reaction was quantified by emission intensity.
ENVISION (trade name, manufactured by Perkin Elmer Inc.) was used for the measurement of the emission intensity.
(§1) The inhibitory activities of the compounds were evaluated using IC50 (50% inhibitory concentration). The IC50 was calculated using XLFIT (trade name, manufactured by ID Business Solutions).

[1] = target: T2, GST fusion human ERK2 protein (Homo sapiens, UniProt P28482); experiment: ERK2 enzyme assay (2); format: biochemical; conditions: read-out: ERK2 enzyme inhibitory activity (2)
T2 construct: purchased Carna Biosciences, Inc; host or cells: E. coli expression system
Description: In an ERK2 enzyme assay, GLUTATHIONE S-TRANSFERASE (GST) FUSION HUMAN ERK2 PROTEIN (manufactured by Carna Biosciences, Inc.), which was produced by using an E. coli expression system, was used.
12 μL of a reaction liquid (1.25 nmol/L ERK2, 100 mmol/L Hepes, 10 mmol/L MgCl2, 1.5 mmol/L DTT, 0.003% Brij35, pH 7.5) including ERK2 protein and a test compound having a predetermined concentration was allowed to stand at room temperature for 15 minutes. Then, 3 μL of a mixture liquid of FL-PEPTIDE8 (5-FAM-IPTSPITTTYFFFKKK-COOH) (manufactured by Caliper Life Sciences), which is substrate peptide, and ATP (manufactured by Sigma-Aldrich Co. LLC.) was added thereto such that the final concentrations thereof became 4.25 μmol/L and 1 mmol/L, respectively, and an enzyme reaction was performed by allowing to stand at 25° C. for 120 minutes.
After the reaction, the enzyme reaction was stopped by adding 30 μL of a reaction stopper liquid (100 mmol/L HEPES, 11.2 mmol/L EDTA, 5.6% Brij35, pH 7.5) including a 0.5% COATING REAGENT 8 (trade name, manufactured by Perkin Elmer Inc.) thereto. Then, phosphorylated peptide and non-phosphorylated peptide were separated using LABCHIP EZ READER (trade name, manufactured by Caliper Life Sciences), and the porportion of the phosphorylated peptide was quantified.
as §1

[2] = 4.5 nmol/L PI3Kα, PIP2 50 μmol/L, ATP 100 μmol/L

T1 sequence (P42336 whole entry): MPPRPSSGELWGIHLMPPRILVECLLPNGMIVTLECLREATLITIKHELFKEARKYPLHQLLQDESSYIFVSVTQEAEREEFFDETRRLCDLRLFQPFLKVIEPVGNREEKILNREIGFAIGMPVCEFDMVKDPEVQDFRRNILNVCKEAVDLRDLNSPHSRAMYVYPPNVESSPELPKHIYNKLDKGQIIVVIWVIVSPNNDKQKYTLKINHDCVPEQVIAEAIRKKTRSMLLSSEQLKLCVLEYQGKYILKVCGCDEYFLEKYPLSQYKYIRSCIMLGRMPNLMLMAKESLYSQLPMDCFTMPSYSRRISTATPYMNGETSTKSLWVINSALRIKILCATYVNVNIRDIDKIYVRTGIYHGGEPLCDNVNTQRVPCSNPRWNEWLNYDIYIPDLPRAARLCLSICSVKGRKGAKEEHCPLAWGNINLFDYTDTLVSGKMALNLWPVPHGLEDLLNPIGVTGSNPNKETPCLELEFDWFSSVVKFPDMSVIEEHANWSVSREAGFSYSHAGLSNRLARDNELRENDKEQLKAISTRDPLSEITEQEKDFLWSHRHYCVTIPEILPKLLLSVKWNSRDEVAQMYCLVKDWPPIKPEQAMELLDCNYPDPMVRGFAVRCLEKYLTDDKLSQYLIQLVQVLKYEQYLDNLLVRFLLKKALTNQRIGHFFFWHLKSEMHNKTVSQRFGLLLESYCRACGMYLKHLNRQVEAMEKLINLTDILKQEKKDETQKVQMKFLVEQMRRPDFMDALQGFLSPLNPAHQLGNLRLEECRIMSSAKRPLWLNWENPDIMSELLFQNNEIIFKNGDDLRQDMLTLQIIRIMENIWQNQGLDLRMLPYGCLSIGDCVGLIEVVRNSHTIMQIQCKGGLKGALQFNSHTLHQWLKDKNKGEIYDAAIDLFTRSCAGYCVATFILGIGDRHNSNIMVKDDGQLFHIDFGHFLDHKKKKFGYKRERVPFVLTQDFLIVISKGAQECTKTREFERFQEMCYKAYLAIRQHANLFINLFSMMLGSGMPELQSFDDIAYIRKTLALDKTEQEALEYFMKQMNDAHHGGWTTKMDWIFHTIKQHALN
T1 sequence (P27986 whole entry partner): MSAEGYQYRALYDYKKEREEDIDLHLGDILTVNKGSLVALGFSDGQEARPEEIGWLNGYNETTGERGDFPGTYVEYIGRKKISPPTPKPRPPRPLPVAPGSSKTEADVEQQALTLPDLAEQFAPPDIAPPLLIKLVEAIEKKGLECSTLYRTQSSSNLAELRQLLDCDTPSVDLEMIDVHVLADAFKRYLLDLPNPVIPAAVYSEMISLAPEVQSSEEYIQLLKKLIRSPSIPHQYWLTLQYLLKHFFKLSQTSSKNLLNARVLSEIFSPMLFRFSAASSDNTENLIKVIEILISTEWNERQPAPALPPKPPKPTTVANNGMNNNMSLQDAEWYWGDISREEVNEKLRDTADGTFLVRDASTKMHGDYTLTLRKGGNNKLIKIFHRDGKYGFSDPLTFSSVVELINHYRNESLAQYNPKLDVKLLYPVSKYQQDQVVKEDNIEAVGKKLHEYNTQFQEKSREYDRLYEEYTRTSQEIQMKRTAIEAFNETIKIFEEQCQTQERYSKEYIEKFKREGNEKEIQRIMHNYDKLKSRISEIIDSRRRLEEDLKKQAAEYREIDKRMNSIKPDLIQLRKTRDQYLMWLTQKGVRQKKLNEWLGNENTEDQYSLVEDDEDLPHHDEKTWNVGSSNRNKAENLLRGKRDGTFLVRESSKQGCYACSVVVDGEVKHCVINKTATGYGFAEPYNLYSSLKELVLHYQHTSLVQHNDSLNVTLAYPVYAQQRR
T2 sequence (P28482 whole entry, the tested form may be a part): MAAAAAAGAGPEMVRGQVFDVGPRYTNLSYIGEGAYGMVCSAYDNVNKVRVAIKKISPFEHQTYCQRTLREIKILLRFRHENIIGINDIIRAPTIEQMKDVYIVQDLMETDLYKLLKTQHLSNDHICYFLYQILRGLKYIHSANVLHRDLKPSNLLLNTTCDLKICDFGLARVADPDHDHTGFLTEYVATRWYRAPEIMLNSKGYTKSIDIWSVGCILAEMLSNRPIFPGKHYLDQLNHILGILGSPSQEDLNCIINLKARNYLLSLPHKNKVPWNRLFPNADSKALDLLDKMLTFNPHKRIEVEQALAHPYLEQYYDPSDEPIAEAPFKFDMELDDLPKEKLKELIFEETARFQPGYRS

Row | Compound | IC50 (human PI3Kα protein) [µM] | IC50 ([1]; ERK2 enzyme assay (2)) [µM] | IC50 [1] [µM] | IC50 (human PI3Kα protein; [2]) [µM]
1 | Cc1ccc(S(=O)(=O)NC2CN(c3cnc4ccc(Nc5cc(C(C)C)cnn5)nc4c3)C2)cc1 [Example 0866] | 1 to 10 |  |  | 
2 | CC(C)c1cnnc(Nc2ccc3ncc(C(N)=O)cc3n2)c1 [Example 0640, 6-((5-isopropylpyridazin-3-yl)amino)-1,5-naphthyridine-3-carboxamide] | 1 to 10 | < 1 |  | 
3 | COc1ncccc1-c1cnc2ccc(Nc3cc(C(C)C)cnn3)nc2c1 [Example 0591] | 1 to 10 | < 1 |  | 
4 | CC(C)c1cnnc(Nc2ccc3ncc(C(=O)Nc4ccncc4)cc3n2)c1 [Example 0669] | 1 to 10 | 1 to 10 |  | 
5 | CC(C)c1cnnc(Nc2ccc3ncc(-n4cnc5ccccc54)cc3n2)c1 [Example 0512] | 1 to 10 | < 1 |  | 
6 | CC(C)c1cnnc(Nc2ccc3ncc(N(C)S(C)(=O)=O)cc3n2)c1 [Example 0841, N-(6-((5-isopropylpyridazin-3-yl)amino)-1,5-naphthyridin-3-yl)-N-methylmethane sulfonamide] | 1 to 10 | 1 to 10 |  | 
7 | CC(C)c1cnnc(Nc2ccc3ncc(N4CC5(CCO5)C4)cc3n2)c1 [Example 0856] | 1 to 10 | < 1 |  | 
8 | Cc1nccn1-c1cnc2ccc(Nc3cc(C(C)C)cnn3)nc2c1 [Example 0513] |  | < 1 |  | 
9 | CC(C)c1nnc(Nc2ccc3nccc(Nc4ccccn4)c3n2)s1 [Example 0005] |  |  |  | < 1
10 | Cn1cc(-c2cnc3ccc(Nc4cc(-c5ccccc5)cnn4)nc3c2)cn1 [Example 0570] |  | < 1 |  | 
11 | Cn1cc(-c2cnc3ccc(Nc4ccccc4N)nc3c2)cn1 [Example 0675, N^1-(7-(1-methyl-1H-pyrazol-4-yl)-1,5-naphthyridin-2-yl)benzene-1,2-diamine] | 10 to 50 |  |  | 
12 | Cn1cc(-c2cnc3ccc(Nc4cccc(N)c4)nc3c2)cn1 [Example 0677, N^1-(7-(1-methyl-1H-pyrazol-4-yl)-1,5-naphthyridin-2-yl)benzene-1,3-diamine] | 1 to 10 |  |  | 
13 | CC(C)c1cnnc(Nc2ccc3ncc(-c4cnn(C)c4)c(O)c3n2)c1 [Example 0915, 6-((5-Isopropylpyridazin-3-yl)amino)-3-(1-methyl-1H-pyrazol-4-yl)-1,5-naphthyridine-4-ol] |  |  | 10 to 50 | 
14 | COc1cncc(Nc2cnc3ccc(Nc4cncc(OC)c4)nc3c2)c1 [Example 0155, N^2,N^7-bis(5-methoxypyridin-3-yl)-1,5-naphthyridine-2,7-diamine] |  |  |  | 1 to 10
15 | CCOC(=O)c1csc(Nc2ccc3ncc(-c4cnn(C)c4)cc3n2)n1 [Example 0034, ethyl 2-((7-(1-methyl-1H-pyrazol-4-yl)-1,5-naphthyridin-2-yl)amino)thiazole-4-carboxylate] |  |  |  | 1 to 10
16 | CC(C)c1cnnc(Nc2ccc3ncc(C(=O)N(C)C)cc3n2)c1 [Example 0643] |  | 10 to 50 |  | 
17 | CC(C)c1cnnc(Nc2ccc3ncc(C(=O)Nc4ccccc4)cc3n2)c1 [Example 0668] |  | 1 to 10 |  | 
18 | CC(C)c1cnnc(Nc2ccc3ncc(C(=O)NCc4ccccc4)cc3n2)c1 [Example 0647, N-benzyl-6-((5-isopropylpyridazin-3-yl)amino)-1,5-naphthyridine-3-carboxamide] |  | 1 to 10 |  | 
19 | Cn1cc(-c2cnc3ccc(Nc4nccn4C)nc3c2)cn1 [Example 0516, N-(1-methyl-1H-imidazol-2-yl)-7-(1-methyl-1H-pyrazol-4-yl)-1,5-naphthyridine-2-amine] | 10 to 50 |  |  | 
20 | Cn1cc(-c2cnc3ccc(Nc4cc(C(C)(C)C)on4)nc3c2)cn1 [Example 0776, 5-(tert-Butyl)-N-(7-(1-methyl-1H-pyrazol-4-yl)-1,5-naphthyridin-2-yl)isoxazole-3-amine] | 10 to 50 |  |  | 
21 | Cc1nnc(Sc2ccc3ncc(-c4cnn(C)c4)cc3n2)s1 [Example 0047, 2-methyl-5-((7-(1-methyl-1H-pyrazol-4-yl)-1,5-naphthyridin-2-yl)thio)-1,3,4-thiadiazole] |  |  |  | < 1
22 | Cn1cc(-c2cnc3ccc(Nc4cc(-c5ccncc5)cnn4)nc3c2)cn1 [Example 0763] |  | < 1 |  | 

Other lines, results leading:

Row | IC50 (human PI3Kα protein) [µM] | IC50 ([1]; ERK2 enzyme assay (2)) [µM] | IC50 [1] [µM] | IC50 (human PI3Kα protein; [2]) [µM] | Compound
23 | < 1 | < 1 |  |  | COc1cccc(OCc2nn(C)cc2-c2cnc3ccc(Nc4cc(C(C)C)cnn4)nc3c2)c1 [Example 0805]
24 | < 1 | < 1 |  |  | C=Cn1cc(-c2cnc3ccc(Nc4cc(C(C)C)cnn4)nc3c2)cn1 [Example 0610, N-(5-isopropylpyridazin-3-yl)-7-(1-vinyl-1H-pyrazol-4-yl)-1,5-naphthyridine-2-amine]
25 | < 1 | < 1 |  |  | CC(C)c1cnnc(Nc2ccc3ncc(-c4cnn(CCCN5CC[C@@H](F)C5)c4)cc3n2)c1 [Example 0429]
26 | < 1 |  | < 1 |  | CCC(C)c1cnnc(Nc2ccc3ncc(-c4cn(C)nc4C)cc3n2)c1 (stereo not shown) [Example 0916]
27 | < 1 | < 1 |  |  | COC(CN1CC(OC(F)F)C1)Cn1cc(-c2cnc3ccc(Nc4cc(C(C)C)cnn4)nc3c2)cn1 (stereo not shown) [Example 0813, 7-(1-(3-(3-(Difluoromethoxy)azetidin-1-yl)-2-methoxypropyl)-1H-pyrazol-4-yl)-N-(5-isopropylpyridazin-3-yl)-1,5-naphthyridine-2-amine]
28 | < 1 | < 1 |  |  | CC(C)c1cnnc(Nc2ccc3ncc(-c4ccn(C)c(=O)c4)cc3n2)c1 [Example 0603]
29 | < 1 | 1 to 10 |  |  | CC(=O)N1CCC(Nc2cnc3ccc(Nc4cc(C(C)C)cnn4)nc3c2)CC1 [Example 0540, 1-(4-((6-((5-Isopropylpyridazin-3-yl)amino)-1,5-naphthyridin-3-yl)amino)piperidin-1-yl)ethanone]
30 | < 1 | < 1 |  |  | CC(C)c1cnnc(Nc2ccc3ncc(-c4cnn(CCCN5CC(OCC(F)(F)F)C5)c4)cc3n2)c1 [Example 0699]
31 | < 1 | < 1 |  |  | CC(C)c1cnnc(Nc2ccc3ncc(-c4cn(C)nc4-c4ccnc(N5CCOCC5)c4)cc3n2)c1 [Example 0749, N-(5-isopropylpyridazin-3-yl)-7-(1-methyl-3-(2-morpholinopyridin-4-yl)-1H-pyrazol-4-yl)-1,5-naphthyridine-2-amine]
32 | < 1 | < 1 |  |  | CC(C)c1cnnc(Nc2ccc3ncc(C4=CCN(C(=O)N(C)C)CC4)cc3n2)c1 [Example 0883, 4-(6-((5-Isopropylpyridazin-3-yl)amino)-1,5-naphthyridin-3-yl)-N,N-dimethyl-5,6-dihydropyridine-1(2H)-carboxamide]
33 | < 1 | < 1 |  |  | CC(C)c1cnnc(Nc2ccc3ncc(-c4cnn(Cc5ccccc5N)c4)cc3n2)c1 [Example 0705, 7-(1-(2-aminobenzyl)-1H-pyrazol-4-yl)-N-(5-isopropylpyridazin-3-yl)-1,5-naphthyridine-2-amine]
34 | < 1 |  | < 1 |  | COc1c(-c2cnn(C)c2)cnc2ccc(Nc3cc(C(C)C)cnn3)nc12 [Example 0914, N-(5-isopropylpyridazin-3-yl)-8-methoxy-7-(1-methyl-1H-pyrazol-4-yl)-1,5-naphthyridine-2-amine]
35 | < 1 |  |  |  | Cc1ccnc(Nc2ccc3ncc(-c4cnn(C)c4)cc3n2)c1 [Example 0546]
36 | < 1 |  |  |  | CC(C)c1cnnc(Nc2ccc3ncc(-c4cn(C)nc4-c4ccnc(N(C)C)c4)cc3n2)c1 [Example 0753, 7-(3-(2-(Dimethylamino)pyridin-4-yl)-1-methyl-1H-pyrazol-4-yl)-N-(5-isopropylpyridazin-3-yl)-1,5-naphthyridine-2-amine]
37 | < 1 |  |  |  | Cn1cc(-c2cnc3ccc(Nc4ccncn4)nc3c2)cn1 [Example 0775, 7-(1-Methyl-1H-pyrazol-4-yl)-N-(pyrimidin-4-yl)-1,5-naphthyridine-2-amine]
